EPA's ToxRefDB 2

How the values were obtained:
rat [1] = conditions: Combined chronic toxicity/carcinogenicity, sprague dawley, Oral, Feed, dose end: 104 week, group: systemic
rat [2] = conditions: Combined chronic toxicity/carcinogenicity; sprague dawley; Oral; Feed; dose end: 2 year; group: systemic; systemic / in life observation / body weight / body weight gain
rabbit [3] = conditions: Prenatal developmental toxicity study, new zealand white, Oral, Gavage/Intubation, dose end: 19 GD
rat [4] = conditions: Prenatal developmental toxicity study, sprague dawley, Oral, Gavage/Intubation, dose end: 15 GD
rat [5] = conditions: Subchronic oral toxicity in rodents, Tif: RAIf (SPF), Feed, dose end: 13 week, group: systemic, systemic / in life observation / body weight / body weight + systemic / in life observation / body weight / body weight gain + systemic / …
rat [6] = conditions: Subchronic oral toxicity in rodents, other, Feed, dose end: 92 day, group: systemic
dog [7] = conditions: Chronic toxicity; beagle; Oral; Feed; dose end: 52 week; group: systemic; systemic / in life observation / clinical signs / [other] + systemic / in life observation / clinical signs / tachycardia + systemic / …
rabbit [8] = conditions: Prenatal developmental toxicity study, new zealand white, Oral, Gavage/Intubation, dose end: 19 GD; remark: listed apart in the source
mouse = conditions: Carcinogenicity, cd1, Oral, Feed, dose end: 91 week, group: systemic
dog [9] = conditions: Subchronic oral toxicity in nonrodent, beagle, Feed, dose end: 13 week, group: systemic
dog [10] = conditions: Chronic toxicity; beagle; Oral; Feed; dose end: 52 week; group: systemic; systemic / pathology gross / heart / discolored + systemic / pathology gross / heart / distended + systemic / pathology gross / heart / …
[11] = systemic / in life observation / body weight / body weight gain + systemic / in life observation / food consumption / food consumption + …
[12] = group: developmental, developmental / developmental malformation / bone / delayed ossification
[13] = group: maternal, reproductive / reproductive performance / resorptions / resorptions + systemic / in life observation / clinical signs / discharge on …
[14] = group: developmental, developmental / developmental malformation / bone / incomplete ossification
[15] = group: maternal, reproductive / reproductive performance / aborted / aborted + systemic / in life observation / body weight / body weight gain + systemic / …
[16] = systemic / hematology / leukocyte (wbc) count differential / leukocyte (wbc)
[17] = group: maternal, reproductive / reproductive performance / resorptions / resorptions + systemic / in life observation / body weight / body weight + systemic…
[18] = systemic / in life observation / body weight / body weight gain + systemic / hematology / erythrocyte (rbc) count differential / erythrocyte…
[19] = systemic / pathology microscopic / kidney / basophilia + systemic / pathology microscopic / kidney / hyperplasia + systemic / hematology / …

CCNc1nc(Cl)nc(NC(C)C)n1 [Atrazine]
LOAEL (rat [1]; systemic / in life observation / body weight / body weight gain + systemic / in life observation / food consumption / food consumption): 25 mg/kg/day
NEL (rat [1]; [11]): 0.5 mg/kg/day
NOAEL (rat [1]; [11]): 3.5 mg/kg/day
LEL (rat [1]; systemic / pathology microscopic / mammary gland / adenocarcinoma): 3.5 mg/kg/day
LEL (rat [2]): 25 mg/kg/day
LOAEL (rat [2]): 25 mg/kg/day
NEL (rat [2]): 3.5 mg/kg/day
NOAEL (rat [2]): 3.5 mg/kg/day
LEL (rabbit [3]; [12]): 75 mg/kg/day
LOAEL (rabbit [3]; [12]): 75 mg/kg/day
NEL (rabbit [3]; [12]): 5 mg/kg/day
NOAEL (rabbit [3]; [12]): 5 mg/kg/day
LEL (rabbit [3]; [13]): 75 mg/kg/day
LOAEL (rabbit [3]; [13]): 75 mg/kg/day
NEL (rabbit [3]; [13]): 5 mg/kg/day
NOAEL (rabbit [3]; [13]): 5 mg/kg/day
LEL (rat [4]; [14]): 5 mg/kg/day
LOAEL (rat [4]; [14]): 100 mg/kg/day
NEL (rat [4]; [14]): < 5 mg/kg/day
NOAEL (rat [4]; [14]): 25 mg/kg/day
LEL (rat [4]; group: maternal, reproductive / reproductive performance / aborted / aborted): 25 mg/kg/day
NEL (rat [4]; [15]): 5 mg/kg/day
NOAEL (rat [4]; [15]): 25 mg/kg/day
LOAEL (rat [4]; group: maternal, systemic / in life observation / body weight / body weight gain + systemic / in life observation / food consumption / food consumption): 100 mg/kg/day
LEL (rat [5]): 34.9 mg/kg/day
LOAEL (rat [5]): 34.9 mg/kg/day
NEL (rat [5]): 3.2 mg/kg/day
NOAEL (rat [5]): 3.2 mg/kg/day
LEL (rat [6]; [16]): 0.659 mg/kg/day
NEL (rat [6]; [16]): < 0.659 mg/kg/day
LOAEL (rat [6]; systemic / in life observation / body weight / body weight + systemic / in life observation / body weight / body weight gain): 34 mg/kg/day
NOAEL (rat [6]; systemic / in life observation / body weight / body weight + systemic / in life observation / body weight / body weight gain + systemic / …): 3.3 mg/kg/day
LEL (dog [7]): 33.6 mg/kg/day
LOAEL (dog [7]): 33.6 mg/kg/day
NEL (dog [7]): 4.97 mg/kg/day
NOAEL (dog [7]): 4.97 mg/kg/day
LEL (rabbit [8]; [12]): 75 mg/kg/day
LOAEL (rabbit [8]; [12]): 75 mg/kg/day
NEL (rabbit [8]; [12]): 5 mg/kg/day
NOAEL (rabbit [8]; [12]): 5 mg/kg/day
LEL (rabbit [8]; [17]): 75 mg/kg/day
LOAEL (rabbit [8]; [17]): 75 mg/kg/day
NEL (rabbit [8]; [17]): 5 mg/kg/day
NOAEL (rabbit [8]; [17]): 5 mg/kg/day
LOAEL (mouse; systemic / in life observation / body weight / body weight gain): 194 mg/kg/day
LEL (mouse; [18]): 194 mg/kg/day
NEL (mouse; [18]): 38.4 mg/kg/day
NOAEL (mouse; [18]): 38.4 mg/kg/day
LOAEL (dog [9]; systemic / pathology microscopic / kidney / basophilia + systemic / pathology microscopic / kidney / hyperplasia): 28.9 mg/kg/day
LEL (dog [9]; [19]): 28.9 mg/kg/day
NEL (dog [9]; [19]): 3.71 mg/kg/day
NOAEL (dog [9]; [19]): 3.71 mg/kg/day
LEL (dog [10]): 24.1 mg/kg/day
LOAEL (dog [10]): 24.1 mg/kg/day
NEL (dog [10]): 3.61 mg/kg/day
NOAEL (dog [10]): 3.61 mg/kg/day
